What was measured:
[1] = system: hPSCs; settings: 6 μM, undifferentiated hPSCs, serum-free and albumin-free medium, after 24 hours; cited from earlier work
[2] = system: hPSCs; experiment: Primitive streak induction of hPSCs by Wnt activation (brachyury immunofluorescence / flow cytometry); assay type: cell-based, human
Protocol: Thus, as a first step toward differentiating hPSCs into podocytes, induced hPSCs (iPSCs) were seeded on a Matrigel®-coated surface at a density of ˜2×10^4 cells/cm^2 in mTeSR®1. After 3 days of expansion to a density of 6×10^4 cells/cm^2, the hPSCs were treated with 6 μM CHIR99201 for 48 hr in serum-free and albumin-free podocyte medium 1 (PM1: DMEM/F12, 1% MEM-NEAA, 0.5% GlutaMAX, 0.1 mM β-mercaptoethanol) (FIG. 1A). […] After 48 hr CHIR99201 treatment in PM1, the medium was switched to serum-free podocyte medium 2 (PM2: human endothelial serum-free medium (hESFM), 2% B-27®) and cultured to day 16. The kinetics of primitive streak induction were assessed by immunofluorescence and qRT-PCR. […] At day 0, differentiation was initiated by treating cells with 6 μM CHIR99021 (Selleckchem) in podocyte medium 1 (PM1): DMEM/Ham's F12 (Thermo Fisher), 100×MEM nonessential amino acids (Thermo Fisher), 200× GlutaMAX (Thermo Fisher), and 0.1 mM β-mercaptoethanol (Sigma) for 2 days. After 48 hr, medium was changed to podocyte medium 2 (PM2): human Endothelial Serum-Free Medium (hESFM) (Thermo Fisher) supplemented with 50× B-27®. […] Cells were stained with primary and secondary antibodies diluted in 0.5% BSA plus 0.1% Triton-X 100 as described.^34 Data were collected on a FACS Caliber flow cytometer (Beckton Dickinson) and analyzed using FlowJo®. […]

[3] = system: BMP-induced SMAD1/5/8 phosphorylation; experiment: Phosphorylated SMAD Western blot after dorsomorphin treatment of differentiating cells; assay type: cell-based, human; settings: added from days 1-3 of differentiation; P-SMAD at day 3; 0 to 10 μM tested
Protocol: Singularized IMR90-4 hPSCs were seeded on 12-well plates coated with Matrigel®, Synthemax® or vitronectin and expanded for 3 days in mTeSR®1. Podocyte differentiation was initiated with treatment using 6 μM CHIR (CHIR99021) for 48 h in PM1 followed by treatment with different combinations of 0.1 μM or 1 μM RA, 50 ng/mL BMP7 and 50 ng/mL FGF2 from day 2 to day 6 in PM2. […] (D, E) Expression of phosphorylated SMAD was assessed by Western blot after cells were treated with dorsomorphin (0 μM to 10 μM) from day 1 to day 3 or from day 3 to day 4. […] Data were collected from three independent replicates and are plotted as mean±SEM. *p<0.05. ***p<0.001. […] Cells were dissociated with Accutase® and rinsed with PBS twice before being lysed with RIPA (ROCKLAND) in the presence of 1% Halt Protease and Phosphatase Inhibitor Cocktail (Pierce). Protein concentration was determined by a BCA assay kit (Thermo Fisher) according to manufacturer's instructions. Samples containing 30 μg of total protein were loaded onto pre-cast 10% Tris-Glycine SDS/PAGE gels (Invitrogen) under denaturing conditions and transferred to a nitrocellulose membrane. After blocking with 5% non-fat milk in TBST, the membrane was incubated with primary antibody (Table 1) overnight at 4° C. […]

[4] = system: IMR90-4 hPSCs; experiment: WT1 expression at day 6 by Western blot after treatment with BMP7, RA, FGF2 from day 2 to day 6; assay type: cell-based, human; settings: treatment day 2 to day 6 in PM2
Protocol: FIGS. 3A-3L Wnt signaling activation alone is sufficient to differentiate hPSCs into nephron progenitor cells. (A) Schematic of podocyte differentiation factor identification. Singularized IMR90-4 hPSCs were seeded on 12-well plates coated with Matrigel®, Synthemax® or vitronectin and expanded for 3 days in mTeSR®1. Podocyte differentiation was initiated with treatment using 6 μM CHIR (CHIR99021) for 48 h in PM1 followed by treatment with different combinations of 0.1 μM or 1 μM RA, 50 ng/mL BMP7 and 50 ng/mL FGF2 from day 2 to day 6 in PM2. (B) Cells at day 6 were assessed by Western blot for the expression level of WT1. (C) Expression level was quantified via Image J. The expression was first normalized to β-actin and then compared to WT1 expression in the absence of FGF2, RA and BMP7. (D, E) Expression of phosphorylated SMAD was assessed by Western blot after cells were treated with dorsomorphin (0 μM to 10 μM) from day 1 to day 3 or from day 3 to day 4. (F, G) Expression of BMP7 at day 1 and day 2 was verified by immunofluorescence and Western blot of cell lysate. (H, I) Cells were differentiated in the presence or absence of 1 μM dorsomorphin treatment from day 1 to day 3 and at day 16 were assessed for expression of PAX2 and WT1 by flow cytometry. Data were collected from three independent replicates and are plotted as mean±SEM. *p<0.05. ***p<0.001. […]

[5] = system: IMR90-4 iPSC-derived podocytes; experiment: Apoptosis assay: dead cells by trypan blue after TGF-β1; assay type: cell-based, human; settings: 5 or 50 ng/mL, 24 hr, day 16 podocytes; control 2%
Protocol: (§1) At day 16, cells were treated with 500 ng/mL Ang II for 6 hr and phalloidin staining was used to assess changes in cytoskeletal structure. White arrows indicate the cells with peripheral F-actin. (B) More than 200 cells over 15 images were analyzed and the percentage of cells with peripherally-organized actin was calculated for control and Ang II-treated cells. Data are presented as mean percentage±SEM of three independent experiments over 15 images. Scale bars, 100 μm. (C) At day 16, cells were treated with 5 ng/mL and 50 ng/mL TGF-β1 for 24 hr. Detached cells were collected from the medium and combined with Accutase®-dissociated cells from the substrate. Cells were treated with trypan blue and the numbers of cells incorporating and excluding trypan blue were counted on a hemocytometer. Percentage of dead cells was calculated as the number of cells that incorporated trypan blue divided by the total cell number. […]
(§2) Podocytes uptake albumin via endocytosis and degrade albumin in lysosomes^52,53. We assessed the ability of day 16 iPSC-derived podocytes to endocytose Alexa Fluor 555-labeled albumin in a temperature-dependent manner. […]
(§3) Differentiated podocytes at day 16 were treated with 500 ng/ml Ang II for 6 hr or […] TGF-β1 for 24 hr. […] The cells treated with TGF-β1 after 24 hr were assessed by counting dead cells with trypan blue exclusion.

[6] = system: IMR90-4 iPSC-derived podocytes; experiment: Contractility assay: actin reorganization (phalloidin staining) after Ang II; assay type: cell-based, human; settings: 500 ng/mL, 6 hr, day 16 podocytes; control about 20%
Protocol: as §1, §2, §3

## Cc1c[nH]c(-c2cnc(NCCNc3ccc(C#N)cn3)nc2-c2ccc(Cl)cc2Cl)n1 [CHIR99021]
[1]
  population expressing primitive streak markers (prior study): uniform population of cells expressing primitive streak markers
[2]; 6 μM alone, podocyte permissive medium, three different hPSC lines
  ability alone to direct hPSC lines into intermediate mesoderm, nephron progenitors and mature podocytes: sufficient
[2]; 6 μM, 24 hr treatment, PM1, iPSCs on Matrigel
  cells expressing the primitive streak marker brachyury (positive population): ~100%

## c1cc(-c2cnn3cc(-c4ccc(OCCN5CCCCC5)cc4)cnc23)ccn1 [dorsomorphin]
[3]
  dorsomorphin concentration at which SMAD phosphorylation was completely inhibited: higher than 5 μM

## FGF2: fibroblast growth factor, exogenous growth factor
[4]
  effect on WT1 expression in the hPSC-derived podocytes: diminished

## TGF-β1: induces cell death in primary and immortalized podocytes
[5]
  percentage of dead cells (trypan blue uptake): 15%

## angiotensin II [Ang II, induces podocyte damage by altering cytoskeletal structure and inducing contractility]
[6]
  percentage of cells with peripheral actin: Over 50%

B1: BMP7: bone morphogenetic protein, exogenous growth factor (protein, UniProt P18075 293-431, looked up)
Bone morphogenetic protein 7: STGSKQRSQNRSKTPKNQEALRMANVAENSSSDQRQACKKHELYVSFRDLGWQDWIIAPEGYAAYYCEGECAFPLNSYMNATNHAIVQTLVHFINPETVPKPCCAPTQLNAISVLYFDDSSNVILKKYRNMVVRACGCH
[4]
  effect on WT1 expression in the hPSC-derived podocytes: diminished
